From US6338963B1, “Use of carbon monoxide dependent guanylyl cyclase modifiers to stimulate neuritogenesis” (NeoTherapeutics, Inc., priority 1994, dated 2002)
Marks after values point to notes of the source that are not given here.

Legend:
mice = assay: Elevated Plus maze (anxiety); assay type: in vivo
From the text: A Plus maze was constructed of black plexiglass consisting of two opposite-facing open arms (30×5 cm, L×W) and two opposite facing closed arms (30×5×15 cm, L×W×H). The walls of the closed arms were clear plexiglass and the four arms were connected by a central area 5×5 cm. The entire Plus maze was mounted on a base 38 cm above the floor. Testing consisted of placing the subject at one end of one of the open arms. The time the subject took to leave the start position (the first 10 cm of the open arm) was recorded. The time it took for the subject to enter halfway into one of the closed arms was also recorded. When the subject arrived at the half-way point in the closed arm, the three-minute test session began. During the three-minute test session, the number of times the subject entered the open arms was recorded. An entry was defined as placing at least two paws onto the platform of the open arm.

[1] = Appearance and weight during one week in drinking water; assay type: in vivo, F344 rats; conditions: 30 mg/kg/day and ~3,000 mg/kg/day in drinking water
Method: Adult female F344 rats were given either AIT-082 (doses: 30 mg/kg/day or a higher dose of 30 mg/ml (˜3,000 mg/kg/day); n=6 rats per group) in their drinking water, or water alone, as a vehicle for control. The duration of the study was seven days, at which time the rats were anesthesized and perfused with ice-cold saline. The brains of the rats were rapidly removed. The brains were placed on a chilled glass plate and dissected into the following regions: basal forebrain, frontal cortex, parietal cortex, cerebellum, spinal cord, and hippocampal formation. Tissues were stored at −70° C. until assayed in a specific two-site ELISA for either NGF, BDNF, NT-3, or GNDF.
This effect was not seen in animals treated with AIT-082 at 3000 mg/kg/day.

BDNF mRNA = assay: RT-PCR of growth factor mRNA after T8 spinal cord hemisection: BDNF; assay type: in vivo, Wistar rats
Swiss Webster mice = assay: Win-shift test, Swiss Webster mice with age-induced memory deficits; assay type: in vivo; conditions: AIT-082 30 mg/kg
Method: Twelve-month old male Swiss Webster mice were screened for performance in the win-shift foraging test. Subjects were tested at various time delays, beginning at 10 seconds and increasing the inter-trial time interval to 30, 60, 90 and 120 seconds.
Subjects with severe impairment could not remember the correct response at 10 seconds while subjects with mild deficit could remember the correct response with a 30 second inter-trial interval but not at 60 seconds. Subjects with a moderate deficit could remember the correct response with a 10 second inter-trial interval but not […] at 30 seconds. Thus, the win-shift model can detect age-induced impairments in working memory. As will be appreciated by those skilled in the art, this observation is important since it provides the ability to use age-matched subjects with varying degrees of impairment for evaluation of potential therapeutic agents.
Following the establishment of a baseline, six subjects in each of the three groups were treated with AIT-82 (30 mg/kg, one hour before testing) or physostigmine (0.125 mg/kg, 30 minutes before testing) using the win-shift foraging test. The results are presented in Table L directly below and graphically represented in FIG. 9.

O=C(CCn1cnc2c(=O)[nH]cnc21)Nc1ccc(C(=O)O)cc1 [AIT-082, N-4-carboxyphenyl-3-(6-oxohydropurin-9-yl)propanamide]
anxiogenic effect in Plus maze (mice; 0.005 to 0.5 mg/kg): not observed
anxiogenic effect in Plus maze (mice; 30 mg/kg): slight anxiogenic effect
anxiogenic effect in Plus maze (mice; 60 mg/kg): not observed
appearance and weight [1]: appeared normal and showed no overt signs of weight loss
BDNF mRNA level (BDNF mRNA; at the level of the lesion): no significant differences
BDNF mRNA level (BDNF mRNA; caudal to lesion, 7 days): no significant effects
BDNF mRNA level (BDNF mRNA; rostral to lesion, 3 days, 20 mg/kg day in drinking water, sham-operated over lesion animals): significantly increased
BDNF mRNA level (BDNF mRNA; rostral to lesion, 7 days, lesioned treated vs lesioned not treated): significantly higher
subjects performing significantly above chance/total number of subjects (Swiss Webster mice; Mild deficit, interval 60 sec): 6/6*
subjects performing significantly above chance/total number of subjects (Swiss Webster mice; Mild deficit, interval 90 sec): 4/6
subjects performing significantly above chance/total number of subjects (Swiss Webster mice; Mild deficit, interval 120 sec): 2/6
subjects performing significantly above chance/total number of subjects (Swiss Webster mice; Mild deficit, interval 150 sec): 1/6
subjects performing significantly above chance/total number of subjects (Swiss Webster mice; Mild deficit, interval 180 sec): 1/6
subjects performing significantly above chance/total number of subjects (Swiss Webster mice; Mild deficit, interval 210 sec): 0/6
subjects performing significantly above chance/total number of subjects (Swiss Webster mice; Moderate deficit, interval 30 sec): 4/6*
subjects performing significantly above chance/total number of subjects (Swiss Webster mice; Moderate deficit, interval 60 sec): 2/6
subjects performing significantly above chance/total number of subjects (Swiss Webster mice; Moderate deficit, interval 90 sec): 0/6
subjects performing significantly above chance/total number of subjects (Swiss Webster mice; Severe deficit, interval <10 sec): 0/6
